Measurements: ChEMBL document CHEMBL1150629, “Isolation and structure of pedilstatin from a republic of maldives Pedilanthus sp” (J Nat Prod, 2002)
In brackets after ≈: the same amount, converted by molar mass.

What was measured:
[1] = test system: Human immunodeficiency virus 1; assay: Antiviral activity against HIV1 RF in human CEM-SS cells assessed as cell protection from infection at 2 to 5 uM after 7 days relative to control; assay type: functional
CEM-SS = assay: Cytotoxicity against human CEM-SS cells assessed as inhibition of cell metabolic activity after 7 days by XTT assay; assay type: functional, cell-based; settings: 168 h
P388 = assay: Cytotoxicity against mouse P388 cells; assay type: functional; settings: read-out: ED50 (the source's name)
[2] = test system: Human immunodeficiency virus 1; assay: Antiviral activity against HIV1 RF in human CEM-SS cells assessed as cell protection from infection after 7 days; assay type: functional, organism-based; settings: Human immunodeficiency virus 1, CEM-SS, 168 h
[3] = Inhibition of [20-3H]phorbol 12,13-dibutyrate binding to protein kinase C

Molecule `CCC/C=C/C=C\C(=O)O[C@@H]1[C@@H](C)[C@]2(O)[C@@H]3C=C(C)C(=O)[C@@H]3CC(CO)=C[C@H]2[C@@H]2C(C)(C)[C@]12OC(C)=O` [PEDILSTATIN] has an Activity [1] of 80%, an IC50 (CEM-SS) of 13300 nM and an EC50 (P388) of 0.28 µg/mL (≈ 0.546 µM). The EC50 [2] was 1030 nM and the Ki [3] was 620 nM.
